Data as given in patent EP0309541B1, “SULFONYLCARBOXAMIDES” (AMERICAN HOME PRODUCTS CORPORATION, priority 1987, dated 1988).

Key:
[1] = system: rat carrageenan paw edema; experiment: Rat carrageenan paw edema assay; format: in vivo; details: for ED50: oral, standard drugs, rat paw edema, read-out: Oral ED50 (95% C.L.); for % Inhibition at 50 mg/kg (peroral): 1 hour prior to carrageenan, edema at 3 hours
Procedure: The compounds of the invention are further tested in the rat carrageenan paw edema assay to determine their ability to inhibit the acute inflammatory response.
(§1) This assay is carried out as follows:
140-180 gm male Sprague-Dawley rats, in groups of 6 animals are injected subcutaneously in the right paw with 0.1 ml of 1% carrageenan at zero time. Mercury plethysmographic readings (ml) of the paw are made at zero time and 3 hours later. Test compounds are suspended or dissolved in 0.5% methylcellulose and given perorally 1 hour prior to carrageenan administration.
The increase in paw volume (edema in ml.) produced by the carrageenan is measured. […] Unpaired Student's t-test is used to determine statistical significance.

[2] = system: LTD₄ induced bronchoconstriction; experiment: Inhibition of leukotriene-induced bronchospasm in guinea pigs in vivo; details: 10 minutes before induction of bronchospasm, inhibition of % max AUC
Procedure: The assay of this Example measures the in vivo ability of the compounds of the invention to inhibit the bronchospasm induced in guinea pigs by the exogenously administered leukotrienes C₄ and/or D₄.
as §1
Male Hartley strain guinea pigs (350-600g) are anesthetized with pentobarbital sodium (50 mg/kg, i.p.). The jugular vein is cannulated for injection of drugs and the carotid artery for monitoring blood pressure. The trachea is cannulated for artificial ventilation by a miniature Starling pump and for indirect measurement of respiratory volume changes. The animals are then pretreated with succinylcholine (2 mg/kg i.v.) and indomethacin (10 mg/kg i.v. in trizma 8.3 buffer, 9 minutes prior to leukotriene challenge). Submaximal bronchoconstrictor responses are established in control animals by varying the dose-levels of leukotriene. Intravenous dose-levels for LTC₄ range from 0.4 to 0.6 µg/kg and for LTD₄ the range is from 0.3 to 0.5 µg/kg.
Test drugs (dissolved in a solvent such as propylene glycol, polyethylene glycol 400 or saline) are administered either intraduodenally, by aerosol or intragastrically at 2 or 10 minutes before induction of bronchospasm by administration of either LTC₄ or LTD₄ at the predetermined dose-level. Aerosol of soluble drugs or leukotrienes are produced in-line for 10 seconds only by actuation of an ultrasonic nebulizer (Monaghan). Aerosolized drug dosage is expressed in terms of solution concentration and by a fixed aerosol exposure time (approximately 10 seconds). Control animal receive solvent (2 ml/kg i.d. or appropriate aerosol) in place of drug.
Respiratory volume changes are determined by a calibrated piston whose travel is recorded, via a linear transducer, on a Beckman Dynograph recorder. Maximal bronchoconstrictor volume is determined by clamping off the trachea at the end of the experiment. Overflow volumes at 1, 3 and 5 minutes are obtained from the recorded charts.
Student's t-test for unpaired data is used to determine statistical significance (p < 0.05).

[3] = system: synthesis of the arachidonic acid cyclooxygenase oxidation product PGE₂; experiment: Inhibition of PGE₂ synthesis (cyclooxygenase product) by rat polymorphonuclear leukocytes; format: cell-based; details: Leukocyte, rat peritoneal PMN, procedure of Example 4, read-out: IC₅₀
Procedure: Peritoneal PMN are obtained from female Wistar rats (150-250 g) that received an i.p. injection of 6% glycogen (10 ml). After 24 hours, rats are killed by Co₂ asphyxiation and peritoneal cells are harvested by peritoneal lavage using Ca⁺⁺ and Mg⁺⁺ free Hanks' balanced salt solution (HBSS). The peritoneal exudate is centrifuged at 400 g for 10 minutes. After centrifugation, the lavaged fluid is removed and the cell pellet is resuspended in HBSS containing Ca⁺⁺ and Mg⁺⁺ and 10 mM L-cysteine at a concentration of 2 x 10⁷ cells/ml. To 1 ml portions of cell suspension, test drugs or vehicle are added and incubated at 37°C for 10 minutes. Following this preincubation, the calcium ionophore (10 µM), A23187, is added together with 0.5 µCi [₁₄C] arachidonic acid and further incubated for 10 minutes. The reaction is stopped by the addition of ice cold water (3 ml) and acidifying to pH 3.5. Lipoxygenase products are then extracted twice into diethyl ether. […] After chromatography, the areas associated with 5-HETE standard are identified by autoradiography, cut out and quantitated by liquid scintillation. […]
In this assay, the procedure of Example 4 is carried out as described. […] After chromatography, the areas associated with the PGE₂ standard are identified by autoradiography, cut out and quantitated by liquid scintillation techniques.
The results are calculated as in Example 4.

[4] = system: synthesis of 5-HETE by rat glycogen elicited polymorphonuclear leukocytes; experiment: Inhibition of 5-HETE synthesis by rat glycogen elicited polymorphonuclear leukocytes; format: cell-based; details: Leukocyte, rat peritoneal PMN, A23187 10 µM, [14C] arachidonic acid, read-out: IC₅₀
Procedure: The assay of this Example measures the ability of the compounds of the invention to inhibit the synthesis of 5-HETE by rat glycogen elicited polymorphonuclear leukocytes.
The assay is carried out as follows:
Peritoneal PMN are obtained from female Wistar rats (150-250 g) that received an i.p. injection of 6% glycogen (10 ml). After 24 hours, rats are killed by Co₂ asphyxiation and peritoneal cells are harvested by peritoneal lavage using Ca⁺⁺ and Mg⁺⁺ free Hanks' balanced salt solution (HBSS). The peritoneal exudate is centrifuged at 400 g for 10 minutes. After centrifugation, the lavaged fluid is removed and the cell pellet is resuspended in HBSS containing Ca⁺⁺ and Mg⁺⁺ and 10 mM L-cysteine at a concentration of 2 x 10⁷ cells/ml. To 1 ml portions of cell suspension, test drugs or vehicle are added and incubated at 37°C for 10 minutes. Following this preincubation, the calcium ionophore (10 µM), A23187, is added together with 0.5 µCi [₁₄C] arachidonic acid and further incubated for 10 minutes. The reaction is stopped by the addition of ice cold water (3 ml) and acidifying to pH 3.5. Lipoxygenase products are then extracted twice into diethyl ether. […] After chromatography, the areas associated with 5-HETE standard are identified by autoradiography, cut out and quantitated by liquid scintillation.

[5] = 25 mg/kg intraduodenally administered
[6] = 25 mg/kg intragastrically administered

Row | SMILES | ED50 [1] [mg/kg] | % Inhibition [2, 5] [%] | % Inhibition [2, 6] [%] | % Inhibition at 50 mg/kg (peroral) [1] [%] | IC50 [3] [µM] | IC50 [4] [µM]
1 | CC(=O)Oc1ccccc1C(=O)O [Aspirin] | 145 |  |  |  |  | 
2 | Cc1ccc(S(=O)(=O)NC(=O)CCc2cccc(OCc3ccc4ccccc4n3)c2)cc1 [Example 1, N-[(4-Methylphenyl)sulfonyl]-3-(2-quinolylmethoxy)benzenepropanamide] |  | 97 | 66 | 40 |  | 
3 | Cc1ccc(S(=O)(=O)NC(=O)c2cccc(OCc3ccc4ccccc4n3)c2)cc1 [Example 3, N-[(4-Methylphenyl)sulfonyl]-3-(2-quinolinylmethoxy)benzamide] |  | 97 | 91 | 50 | 13 | 6
4 | COc1ccc2c(c1)c(CC(=O)O)c(C)n2C(=O)c1ccc(Cl)cc1 [Indomethacin] | 3.7 |  |  |  |  | 
5 | CCCCC1C(=O)N(c2ccccc2)N(c2ccccc2)C1=O [Phenylbutazone] | 26.2 |  |  |  |  | 
